Patent US11548888B2, “KRas G12C inhibitors” (Mirati Therapeutics, Inc., priority 2019, dated 2023)

Biological target: T1, KRas G12C (Homo sapiens, UniProt P01116, G12C)
T1 construct: NCI-H358 cells (ATCC CRL-5807) express KRas G12C
Assay: Inhibition of KRas G12C-dependent cell growth: Phospho-ERK in NCI-H358 cells
Assay type: cell-based
Settings: NCI-H358 cells expressing KRas G12C; Phospho-ERK (Thr202/Tyr204) normalized to GAPDH; 3 hours compound; 4 parameter fit
Procedure, shortened: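 Phospho-ERK read-out in KRas G12C-expressing NCI-H358 cells after 3 h compound treatment (final DMSO 0.5%), by in-cell infrared immunodetection. Signal normalized to GAPDH and to DMSO controls. 4-parameter curve fit gave IC50.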

T1 sequence (P01116 1-188 isoform P01116-2 G12C): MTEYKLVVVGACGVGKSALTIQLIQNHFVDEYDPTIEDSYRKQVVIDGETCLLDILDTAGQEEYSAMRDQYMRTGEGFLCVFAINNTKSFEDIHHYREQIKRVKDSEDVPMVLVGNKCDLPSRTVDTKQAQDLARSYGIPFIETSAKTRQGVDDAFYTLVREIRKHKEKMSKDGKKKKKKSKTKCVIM

Row | SMILES | IC50
1 | COC/C=C/C(=O)N1CCN(c2nc(OC[C@@H]3C[C@@H](OC)CN3C)nc3c(F)c(-c4cccc5cccc(Cl)c45)ncc23)C[C@@H]1CC#N [Example 62, 2-((S)-4-(7-(8-chloronaphthalen-1-yl)-8-fluoro-2-(((2S,4R)-4-methoxy-1-methylpyrrolidin-2-yl)methoxy)pyrido[4,3-d]pyrimidin-4-yl)-1-((E)-4-methoxybut-2-enoyl)piperazin-2-yl)acetonitrile] | 0.018 µM
2 | C=C(F)C(=O)N1CCN(c2nc(OC[C@@H]3CC(F)(F)CN3C)nc3c(F)c(-c4cncc5cccc(C)c45)ncc23)C[C@@H]1CC#N [Example 45, 2-((S)-4-(2-(((S)-4,4-difluoro-1-methylpyrrolidin-2-yl)methoxy)-8-fluoro-7-(5-methylisoquinolin-4-yl)pyrido[4,3-d]pyrimidin-4-yl)-1-(2-fluoroacryloyl)piperazin-2-yl)acetonitrile] | 0.205 µM
3 | CN1CC(F)(F)C[C@H]1COc1nc(N2CCN(C(=O)/C=C/CF)[C@@H](CC#N)C2)c2cnc(-c3cccc4cccc(Cl)c34)c(F)c2n1 [Example 25, 2-((S)-4-(7-(8-chloronaphthalen-1-yl)-2-(((S)-4,4-difluoro-1-methylpyrrolidin-2-yl)methoxy)-8-fluoropyrido[4,3-d]pyrimidin-4-yl)-1-((E)-4-fluorobut-2-enoyl)piperazin-2-yl)acetonitrile] | 0.013 µM
4 | C=C(F)C(=O)N1CCN(c2nc(OC[C@H]3C[C@@H](F)CN3C)nc3c(F)c(-c4cccc5ccc(F)c(Cl)c45)ncc23)C[C@@H]1CC#N [Example 167] | 0.06 µM
5 | C=CC(=O)N1CCCC12CN(c1ncnc3c(F)c(-c4cccc5ccc(F)c(Cl)c45)ncc13)C2 [Example 236] | 10 µM
6 | C=C(F)C(=O)N1CCN(c2nc(OCCc3nccn3C)nc3c(F)c(-c4cccc5ccc(F)c(Cl)c45)ncc23)C[C@@H]1CC#N [Example 132] | 0.145 µM
7 | C=CC(=O)N1CCN(c2nc(C3CC3)nc3c(F)c(-c4cccc5ccc(F)c(Cl)c45)ncc23)C[C@@H]1CC#N [Example 219, (S)-2-(1-acryloyl-4-(7-(8-chloro-7-fluoronaphthalen-1-yl)-2-cyclopropyl-8-fluoropyrido[4,3-d]pyrimidin-4-yl)piperazin-2-yl)acetonitrile] | 0.538 µM
8 | C=C(F)C(=O)N1CCN(c2nc(OCC3CCC4(CO)CCCN34)nc3c(F)c(-c4cccc5ccc(F)c(Cl)c45)ncc23)C[C@@H]1CC#N (stereo partly drawn) [Example 217, 2-((2S)-4-(7-(8-chloro-7-fluoronaphthalen-1-yl)-8-fluoro-2-((7a-(hydroxymethyl)hexahydro-1H-pyrrolizin-3-yl)methoxy)pyrido[4,3-d]pyrimidin-4-yl)-1-(2-fluoroacryloyl)piperazin-2-yl)acetonitrile] | 0.011 µM
9 | C=CC(=O)N1CCN(c2nc(OC[C@@H]3CCCN3C)nc3c(F)c(-c4cccc5ccc(F)c(Cl)c45)ncc23)CC1C(F)(F)F (some centres unmarked) [Example 163] | 0.11 µM
10 | C=CC(=O)N1CC[C@@H]2[C@H]1CN2c1ncnc2c(F)c(-c3cccc4ccc(F)c(CC)c34)ncc12 [Example 304, 1-((1R,5R)-6-(7-(8-ethyl-7-fluoronaphthalen-1-yl)-8-fluoropyrido[4,3-d]pyrimidin-4-yl)-2,6-diazabicyclo[3.2.0]heptan-2-yl)prop-2-en-1-one] | 0.456 µM
11 | C=CC(=O)N1CCN(c2ncnc3c(F)c(-c4cccc5cc(F)ccc45)ncc23)CC1 [Example 258] | 10 µM
12 | C=C(F)C(=O)N1CCN(c2nc(OCC34CCCN3C[C@H](F)C4)nc3c(F)c(-c4cccc5ccc(F)c(Cl)c45)ncc23)C[C@@H]1CC#N (some centres unmarked) [Example 181] | 0.004 µM
13 | CN1CC(F)(F)C[C@H]1COc1nc(N2CCN(C(=O)/C=C/CF)[C@@H](CC#N)C2)c2cnc(-c3cncc4cccc(Cl)c34)c(F)c2n1 [Example 47, 2-((S)-4-(7-(5-chloroisoquinolin-4-yl)-2-(((S)-4,4-difluoro-1-methylpyrrolidin-2-yl)methoxy)-8-fluoropyrido[4,3-d]pyrimidin-4-yl)-1-((E)-4-fluorobut-2-enoyl)piperazin-2-yl)acetonitrile] | 0.03 µM
14 | N#CC[C@H]1CN(c2nc(OCCCN3C[C@@H]4C[C@H]3CO4)nc3c(F)c(-c4cncc5cccc(Cl)c45)ncc23)CCN1C(=O)/C=C/CF [Example 48, 2-[(2S)-4-[7-(5-chloro-4-isoquinolyl)-8-fluoro-2-[3-[(1S,4S)-2-oxa-5-azabicyclo[2.2.1]heptan-5-yl]propoxy]pyrido[4,3-d]pyrimidin-4-yl]-1-[(E)-4-fluorobut-2-enoyl]piperazin-2-yl]acetonitrile] | 0.27 µM
15 | C=CC(=O)N1CCN(c2nc(OC[C@@H]3CCCN3C)nc3c(F)c(-c4ccccc4F)ncc23)[C@@H](C)C1 [Example 100] | 10 µM
16 | C=C(F)C(=O)N1CCN(c2nc(OC[C@@H]3CCCN3CC(F)F)nc3c(F)c(-c4cccc5ccc(F)c(Cl)c45)ncc23)C[C@@H]1CC#N [Example 185] | 0.145 µM
17 | C=CC(=O)N1CCN(c2ncnc3c(F)c(-c4cc(F)cc5ccccc45)ncc23)C[C@@H]1CC#N [Example 249] | 1.25 µM
18 | C=C(F)C(=O)N1CCN(c2nc(OC[C@@H]3CCCN3C)nc3c(F)c(-c4cccc5cccc(Cl)c45)ncc23)[C@@H](C)C1 [Example 75] | 1.19 µM
19 | C=CC(=O)N1CC[C@@H]2[C@H]1CN2c1ncnc2c(F)c(-c3cccc4ccc(F)c(C)c34)ncc12 [Example 285] | 0.782 µM
20 | C=CC(=O)N1CCN(c2ncnc3c(F)c(-c4ccccc4C4CC4)ncc23)CC1 [Example 224] | 10 µM
21 | C=C(F)C(=O)N1CCN(c2nc(OC[C@@H]3C[C@@H](OC)CN3C)nc3c(F)c(-c4cccc5ccc(F)c(Cl)c45)ncc23)C[C@@H]1CC#N [Example 113] | 0.013 µM
22 | C=CC(=O)N1CCN(c2ncnc3c(F)c(-c4cccc5cccc(C)c45)ncc23)C[C@@H]1CC#N [Example 41, 2-[(2S)-4-[8-fluoro-7-(8-methyl-1-naphthyl)pyrido[4,3-d]pyrimidin-4-yl]-1-prop-2-enoyl-piperazin-2-yl]acetonitrile] | 0.216 µM
23 | C=C(F)C(=O)N1CCN(c2nc(OCC34CCCN3C(CO)CC4)nc3c(F)c(-c4cccc5ccc(F)c(Cl)c45)ncc23)C[C@@H]1CC#N (some centres unmarked) [Example 216, 2-((2 S)-4-(7-(8-chloro-7-fluoronaphthalen-1-yl)-8-fluoro-2-((3-(hydroxymethyl)tetrahydro-1H-pyrrolizin-7a(5H)-yl)methoxy)pyrido[4,3-d]pyrimidin-4-yl)-1-(2-fluoroacryloyl)piperazin-2-yl)acetonitrile] | 0.121 µM
24 | Cc1cccc2cccc(-c3ncc4c(N5CCN(C(=O)/C=C/CF)[C@@H](CC#N)C5)nc(OC[C@@H]5CCCN5C)nc4c3F)c12 [Example 12, 2-[(2S)-1-[(E)-4-fluorobut-2-enoyl]-4-[8-fluoro-7-(8-methyl-1-naphthyl)-2-[[(2S)-1-methylpyrrolidin-2-yl]methoxy]pyrido[4,3-d]pyrimidin-4-yl]piperazin-2-yl]acetonitrile] | 0.031 µM
25 | C=CC(=O)N1CCN(c2nc(C(F)(F)F)nc3c(F)c(-c4cccc5ccc(F)c(Cl)c45)ncc23)C[C@@H]1CC#N [Example 199] | 3.4 µM
26 | C=CC(=O)N1CCN(c2ncnc3c(F)c(-c4ccccc4C(C)C)ncc23)CC1 [Example 222] | 10 µM
27 | C=CC(=O)N1C[C@@H]2[C@H]1CCN2c1nc(C)nc2c(F)c(-c3cccc4ccc(F)c(Cl)c34)ncc12 [Example 231] | 4.28 µM
28 | C=C(F)C(=O)N1CCN(c2nc(OCC34CCCN3C(CF)CC4)nc3c(F)c(-c4cccc5ccc(F)c(Cl)c45)ncc23)C[C@@H]1CC#N (some centres unmarked) [Example 188] | 0.029 µM
29 | C=CC(=O)N1CCN(c2nc(OC[C@@H]3CCCN3C)nc3c(F)c(-c4cccc5ccc(F)c(Cl)c45)ncc23)CC1C(F)F (some centres unmarked) [Example 165] | 0.158 µM
